Key:
[1] = target: T1, Pen-2 (Homo sapiens, UniProt Q9NZ42); experiment: Binding of Compound 1 to Pen-2 in lysates prepared from PS1-deficient cells
T1 construct: endogenous in cells; host or cells: PS1-deficient cells (not further described)

[2] = target: T2, Purified Pen-2 (Homo sapiens, UniProt Q9NZ42); experiment: Compound 1-conjugated Affi-Gel resin binding of isolated protein, immunoblot; conditions: elute lane, vs unconjugated resin
T2 construct: GST (N, cleaved yes); purchased Abnova Corp H00055851-PO1
Description: (§1) Prior to assessing binding to Compound 1, the proteins used in the binding assay were characterized. Purified GST (Abnova Corp) and GST-Pen2 (Abnova Corp #H00055851-PO1) proteins were confirmed to react with anti-GST (Novagen #71097-3) and anti-Pen-2 (PNT2) antibodies on an immunoblot. […] To prepare purified Pen-2, about 1 μg of GST-Pen-2 was incubated with 4 μg of PreScission™ protease for 4 hr at 4° C. in Cleavage Buffer (50 mM Tris pH 7.4, 150 mM NaCl, 1 mM EDTA, 1% Triton X-100, 10% glycerol, 1 mg/ml phosphatidylcholine). Free GST and protease were removed by adding glutathione resin (Sigma #G4510) for 1 hr with rotation, and spinning down the resin. The supernatant, containing purified Pen-2, was collected.
(§2) Compound 1-conjugated and unconjugated Affi-Gel 10 resins were prepared essentially as described in Example 1. […]

[3] = target: T3, GST (Schistosoma japonicum, UniProt P08515); experiment: as above
T3 construct: purchased Abnova Corp
Description: as §1, §2

[4] = tested on: presenilin 1 C-terminal fragment (PS1-CTF); experiment: Compound 1-conjugated Affi-Gel resin pull-down from CHO-APPSwe whole-cell lysate, immunoblot; type: binding, Chinese Hamster
Description: (§3) Compound 1, which bears a primary amine, was conjugated to Affi-Gel 10 resin (BioRad #153-6046) according to manufacturer's instructions. Compound 1 was dissolved in DMSO to a final concentration of 15 mg/ml. One ml of compound was mixed with approximately 1 ml of resin previously equilibrated in isopropanol. The compound and resin were rotated at room temperature for approximately 3 hr, washed with DMSO and the remaining unreacted groups were blocked with ethanolamine. The efficiency of coupling was generally greater than 80%, as determined by LC-MS analysis, with approximately 10-15 μmol of compound per ml of resin final concentration.
(§4) Solubilized whole-cell lysates from CHO-APPSwe cells (Chinese Hamster Ovary cells expressing human APP^695 with the K670N/M671L “Swedish” mutation) were prepared in PLC buffer (20 mM Hepes pH 7.5, 1 mM EDTA, 150 mM NaCl, 1% Triton X-100, 0.2% Tween-20). Lysates were pre-cleared by incubating with 200 μl of blocked resin at 4° C. for 1 hr. The resin was pelleted and the resulting lysate was centrifuged at 13,000×g for 15 min to pellet any protein precipitates. One mg (approximately 2 mg/ml) of the pre-cleared whole cell lysate was incubated with 100 μl of either Compound 1-conjugated resin, or with unconjugated resin, for two hours at room temperature, with constant rotation. After incubation, the resin was pelleted at low speed and the supernatant (i.e. unbound proteins) collected. The resin was washed 3-5 times with 1 ml of PLC buffer. Bound proteins were eluted with 200-300 μl aliquots of SDS denaturing sample buffer (0.25 M Tris-HCl, pH 6.8; 5% (w/v) SDS; 0.05% bromophenol blue; 10% glycerol; 2.5% 2-mercaptoethanol). Equal volumes of whole cell lysate (WCL) and supernatant in SDS denaturing sample buffer, as well as eluates from each resin, were run in separate lanes on a 4-20% SDS-PAGE gel. The electrophoresed proteins were transferred to a nitrocellulose membrane (Invitrogen #LC2001) and immunoblotted with antibodies that specifically recognize either Pen-2 (PNT2; gift of Gopal Thinakaran, see Luo et al. (2003), J. Biol. Chem. 278:7850-7854), presenilin 1 N-terminal fragment (PS1-NTF; gift of Gopal Thinakaran), presenilin 1 C-terminal fragment (PS1-CTF; Calbiochem #529592), nicastrin (Nct; Sigma #N-1660), amyloid precursor protein (APP; antibody R8666, PCT publication WO 04/018997) or phopholipase C-gamma (PLCγ; Upstate #06-152).

[5] = tested on: Pen-2; experiment: as above; type: binding, Chinese Hamster
Description: as §3, §4

[6] = tested on: nicastrin (Nct); experiment: as above; type: binding, Chinese Hamster
Description: as §3, §4

[7] = tested on: presenilin 1 N-terminal fragment (PS1-NTF); experiment: as above; type: binding, Chinese Hamster; conditions: some present in eluate, not substantially depleted from starting lysate
Description: as §3, §4

[8] = tested on: phopholipase C-gamma (PLCγ); experiment: as above; type: binding, Chinese Hamster
Description: as §3, §4

[9] = target: GST-Pen2 (Homo sapiens, UniProt Q9NZ42); experiment: Compound 1-conjugated Affi-Gel resin binding of isolated protein, immunoblot; parameters: purchased Abnova Corp H00055851-PO1; conditions: elute lane, vs unconjugated resin
Description: as §1, §2

[10] = target: T4, APP holoenzyme (APP-Holo) (Homo sapiens, UniProt P05067, K670N/M671L); experiment: Compound 1-conjugated Affi-Gel resin pull-down from CHO-APPSwe whole-cell lysate, immunoblot; type: binding
T4 construct: expressed in transfected cells; host or cells: CHO (Chinese Hamster Ovary)
Description: as §3
Solubilized whole-cell lysates from CHO-APPSwe cells (Chinese Hamster Ovary cells expressing human APP^695 with the K670N/M671L “Swedish” mutation) were prepared in PLC buffer (20 mM Hepes pH 7.5, 1 mM EDTA, 150 mM NaCl, 1% Triton X-100, 0.2% Tween-20). Lysates were pre-cleared by incubating with 200 μl of blocked resin at 4° C. for 1 hr. The resin was pelleted and the resulting lysate was centrifuged at 13,000×g for 15 min to pellet any protein precipitates. One mg (approximately 2 mg/ml) of the pre-cleared whole cell lysate was incubated with 100 μl of either Compound 1-conjugated resin, or with unconjugated resin, for two hours at room temperature, with constant rotation. […]

T4 sequence (P05067 other isoform, or with tags, fused parts or gaps K595N/M596L): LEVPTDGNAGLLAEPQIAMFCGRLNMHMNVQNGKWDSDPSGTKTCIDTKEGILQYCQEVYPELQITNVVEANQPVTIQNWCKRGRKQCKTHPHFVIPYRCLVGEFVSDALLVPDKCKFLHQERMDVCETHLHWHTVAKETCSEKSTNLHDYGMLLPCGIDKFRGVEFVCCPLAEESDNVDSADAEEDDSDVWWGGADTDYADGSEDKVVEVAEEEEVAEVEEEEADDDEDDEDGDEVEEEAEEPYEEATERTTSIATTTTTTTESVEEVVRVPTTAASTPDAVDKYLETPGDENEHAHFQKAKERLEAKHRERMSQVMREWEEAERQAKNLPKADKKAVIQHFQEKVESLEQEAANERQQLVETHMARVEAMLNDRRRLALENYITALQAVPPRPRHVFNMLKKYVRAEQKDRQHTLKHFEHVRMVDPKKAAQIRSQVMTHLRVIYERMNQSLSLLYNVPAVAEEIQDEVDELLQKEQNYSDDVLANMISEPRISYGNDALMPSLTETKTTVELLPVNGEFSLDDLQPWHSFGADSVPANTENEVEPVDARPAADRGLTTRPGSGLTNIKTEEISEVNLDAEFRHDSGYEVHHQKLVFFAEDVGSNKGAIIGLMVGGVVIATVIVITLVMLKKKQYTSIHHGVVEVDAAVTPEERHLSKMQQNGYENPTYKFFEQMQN
T3 sequence (P08515 whole entry): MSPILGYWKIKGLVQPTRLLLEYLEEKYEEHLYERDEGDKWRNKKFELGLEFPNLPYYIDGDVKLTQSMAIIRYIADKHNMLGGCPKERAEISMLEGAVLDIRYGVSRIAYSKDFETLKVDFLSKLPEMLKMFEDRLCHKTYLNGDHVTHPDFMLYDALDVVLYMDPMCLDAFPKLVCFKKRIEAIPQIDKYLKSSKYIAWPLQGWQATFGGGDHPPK
GST-Pen2, sequence (Q9NZ42 whole entry): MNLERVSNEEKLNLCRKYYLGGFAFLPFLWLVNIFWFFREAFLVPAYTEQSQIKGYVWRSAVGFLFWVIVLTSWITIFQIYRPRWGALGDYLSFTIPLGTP
T1 sequence (Q9NZ42 whole entry): as above
T2 sequence (Q9NZ42 whole entry): as above

Cc1cn(-c2ccc(-c3csc(Nc4cc(C(C)C)c(OCCN)cc4C)n3)cc2F)cn1 [Compound 1]
binding to Pen-2 present in lysates prepared from PS1-deficient cells [1]: demonstrated binding
binding of purified Pen-2 to Compound 1-conjugated resin [2]: selectively bind
binding of GST to Compound 1 resin [3]: did not bind
binding of PS1-CTF to Compound 1-conjugated resin [4]: did not bind
depletion of Pen-2 from whole cell lysate applied to the Compound 1-conjugated column [5]: substantially depleted
Pen-2 in SDS eluate from resin ([5]; Compound 1-conjugated vs unconjugated Affi-Gel 10 resin, 2 h room temperature): present in the SDS eluate from the Compound 1-conjugated resin, but not from the unconjugated resin
binding of Nct to Compound 1-conjugated resin [6]: did not bind
binding of N-terminal fragment (NTF) of PS1 to Compound 1 [7]: minimal binding
binding of PLCγ to Compound 1-conjugated resin [8]: did not bind
binding of GST-Pen-2 to Compound 1-conjugated resin [9]: selectively bind
binding of APP-Holo to Compound 1-conjugated resin [10]: did not bind
